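Results reflect a 48-hour exposure of cells in 96-well plates to compound at five concentrations. Abbreviation: GI50, concentration required for 50% inhibition of growth.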 Activity calls are given as the source filed them. Cut-off read from the data, not from the text of the source: active = GI50 up to about 1.1 µM and inactive = higher. Where a SMILES comes first, the peptide text is derived from it. The star is where a group is joined. Boc = CC(C)(C)OC(=O)*; OBn = c1ccc(CO*)cc1
Tests used:
Assay in all cases: NCI-60 cell line screen, 48 h
BT-549 = tested on: BT-549
CAKI-1 = tested on: CAKI-1
COLO 205 = tested on: COLO 205
HOP-62 = tested on: HOP-62
HOP-92 = tested on: HOP-92
IGROV-1 = tested on: IGROV-1
KM12 = tested on: KM12
LOX IMVI = tested on: LOX IMVI
Malme-3M = tested on: Malme-3M
NCI-H226 = tested on: NCI-H226
OVCAR-3 = tested on: OVCAR-3
RPMI-8226 = tested on: RPMI-8226
SF-295 = tested on: SF-295
SK-MEL-2 = tested on: SK-MEL-2
SNB-75 = tested on: SNB-75
SW-620 = tested on: SW-620
TK-10 = tested on: TK-10
UACC-257 = tested on: UACC-257
UO-31 = tested on: UO-31

Measured: GI50

CC(=O)O[C@@]12[C@@H]3O[C@@]4(O)C[C@]5(C)[C@H]6C[C@@](C(C)C)(O[C@H]5c5ccoc5)O[C@H]1[C@]6(C4)O[C@]2(O)C(C)=CC3(C)C
inactive: BT-549 > 100 µM | CAKI-1 > 100 µM | COLO 205 > 100 µM | HOP-62 > 100 µM | HOP-92 > 100 µM | IGROV-1 > 100 µM | KM12 > 100 µM | LOX IMVI > 100 µM | Malme-3M > 100 µM | NCI-H226 > 100 µM | OVCAR-3 > 100 µM | RPMI-8226 > 100 µM | SF-295 > 100 µM | SK-MEL-2 > 100 µM | SNB-75 75.9 µM | SW-620 > 100 µM | TK-10 > 100 µM | UACC-257 > 100 µM | UO-31 > 100 µM

CCOC(=O)c1cc(Br)c(-c2onc(C)c2Br)[nH]1
inactive: BT-549 43 µM | CAKI-1 45.7 µM | COLO 205 > 100 µM | HOP-62 18.3 µM | HOP-92 48.1 µM | IGROV-1 40.2 µM | KM12 > 100 µM | LOX IMVI 98.6 µM | Malme-3M 34.4 µM | NCI-H226 30.1 µM | OVCAR-3 > 100 µM | RPMI-8226 > 100 µM | SF-295 43.1 µM | SK-MEL-2 80.7 µM | SNB-75 > 100 µM | SW-620 > 100 µM | UACC-257 93.5 µM | UO-31 > 100 µM

Cc1cc[n+]2c(c1)-c1cc(C)cc[n+]1CC2
inactive: BT-549 > 100 µM | CAKI-1 > 100 µM | COLO 205 22.6 µM | HOP-62 > 100 µM | HOP-92 > 100 µM | IGROV-1 51.2 µM | KM12 > 100 µM | LOX IMVI > 100 µM | Malme-3M 99.5 µM | NCI-H226 > 100 µM | OVCAR-3 45.2 µM | RPMI-8226 > 100 µM | SF-295 > 100 µM | SK-MEL-2 > 100 µM | SNB-75 > 100 µM | SW-620 > 100 µM | TK-10 > 100 µM | UACC-257 > 100 µM | UO-31 > 100 µM

O=C(NCCCCCN1CCC2(CCCCC2)CC1)C(C1CCCCC1)C1CCCCC1
inactive: BT-549 5.87 µM | CAKI-1 4.1 µM | COLO 205 1.45 µM | HOP-62 1.85 µM | HOP-92 3.73 µM | IGROV-1 4.24 µM | KM12 6.11 µM | LOX IMVI 2.7 µM | Malme-3M 1.75 µM | NCI-H226 3.67 µM | OVCAR-3 4.17 µM | RPMI-8226 2.19 µM | SF-295 1.88 µM | SK-MEL-2 2.21 µM | SNB-75 4.12 µM | SW-620 2.6 µM | TK-10 4.71 µM | UACC-257 1.82 µM | UO-31 3.61 µM

COc1ccc(C2OC(=O)c3ccc4ccccc4c32)c(C)c1 (centres undefined)
inactive: BT-549 19.5 µM | CAKI-1 13.3 µM | COLO 205 4.36 µM | HOP-62 7.26 µM | HOP-92 10.9 µM | IGROV-1 5.51 µM | KM12 5.87 µM | LOX IMVI 7.89 µM | Malme-3M 8.18 µM | NCI-H226 13.9 µM | OVCAR-3 6.44 µM | RPMI-8226 11.1 µM | SF-295 2.98 µM | SK-MEL-2 2.1 µM | SNB-75 6.97 µM | SW-620 3.96 µM | TK-10 15.2 µM | UACC-257 27.5 µM | UO-31 8.97 µM

CC12CCC(=O)C=C1CCC1C2C(O)CC2(C)C(c3csc(N)n3)CCC12.O=S(=O)(O)c1ccc(Br)cc1 (centres undefined)
inactive: BT-549 > 100 µM | CAKI-1 > 100 µM | COLO 205 > 100 µM | HOP-62 > 100 µM | HOP-92 > 100 µM | IGROV-1 > 100 µM | KM12 > 100 µM | LOX IMVI > 100 µM | Malme-3M > 100 µM | NCI-H226 > 100 µM | OVCAR-3 > 100 µM | RPMI-8226 > 100 µM | SF-295 > 100 µM | SK-MEL-2 > 100 µM | SNB-75 > 100 µM | SW-620 > 100 µM | TK-10 > 100 µM | UACC-257 > 100 µM | UO-31 > 100 µM

CC(C)Cn1cnc2c(SCc3ccccn3)nc(N)nc21
inactive: BT-549 > 100 µM | CAKI-1 > 100 µM | COLO 205 > 100 µM | HOP-62 > 100 µM | HOP-92 > 100 µM | IGROV-1 > 100 µM | KM12 > 100 µM | LOX IMVI > 100 µM | Malme-3M > 100 µM | NCI-H226 > 100 µM | OVCAR-3 > 100 µM | RPMI-8226 > 100 µM | SF-295 > 100 µM | SK-MEL-2 > 100 µM | SNB-75 51.9 µM | SW-620 > 100 µM | TK-10 > 100 µM | UACC-257 > 100 µM | UO-31 > 100 µM

CC(NC(=O)C(Cc1ccccc1)NC(=O)C(Cc1ccccc1)NC(=O)OC(C)(C)C)C(=O)OCc1ccccc1 (stereo not drawn) (Boc-Phe-Phe-Ala-OBn; configuration not given here)
inactive: BT-549 > 100 µM | CAKI-1 > 10 µM | COLO 205 65.3 µM | HOP-62 > 100 µM | HOP-92 20.4 µM | IGROV-1 > 100 µM | KM12 > 100 µM | LOX IMVI > 100 µM | Malme-3M 93.1 µM | NCI-H226 6.05 µM | OVCAR-3 > 100 µM | RPMI-8226 32.3 µM | SF-295 43.5 µM | SK-MEL-2 > 100 µM | SNB-75 50.8 µM | SW-620 > 100 µM | TK-10 76.2 µM | UACC-257 > 100 µM | UO-31 27.7 µM

O=C(O)C1C2CC3C(OC(=O)C31)C2Br (centres undefined)
inactive: BT-549 > 100 µM | CAKI-1 > 100 µM | COLO 205 > 100 µM | HOP-62 > 100 µM | HOP-92 > 100 µM | IGROV-1 > 100 µM | KM12 > 100 µM | LOX IMVI > 100 µM | Malme-3M > 100 µM | NCI-H226 > 100 µM | OVCAR-3 > 100 µM | RPMI-8226 > 100 µM | SF-295 > 100 µM | SK-MEL-2 > 100 µM | SNB-75 > 100 µM | SW-620 > 100 µM | TK-10 > 100 µM | UACC-257 > 100 µM | UO-31 > 100 µM

Cc1cc(S(=O)(=O)Nc2cc(N)n[nH]2)c(SCc2nc(N)nc(N(C)C)n2)cc1Cl
inactive: BT-549 > 10 µM | CAKI-1 > 10 µM | COLO 205 > 10 µM | HOP-62 > 10 µM | HOP-92 > 10 µM | IGROV-1 > 10 µM | KM12 > 10 µM | LOX IMVI > 10 µM | Malme-3M > 10 µM | NCI-H226 > 10 µM | OVCAR-3 > 10 µM | RPMI-8226 > 10 µM | SF-295 > 10 µM | SK-MEL-2 > 10 µM | SNB-75 > 10 µM | SW-620 > 10 µM | TK-10 > 10 µM | UACC-257 > 10 µM | UO-31 > 10 µM

COc1ccc(-c2cc(-c3ccc(Nc4ccnc5cc(C(F)(F)F)ccc45)cc3)[nH]c(=O)c2C#N)c2ccccc12
inactive: BT-549 > 58.5 µM | CAKI-1 > 100 µM | COLO 205 > 37.7 µM | HOP-62 11.2 µM | HOP-92 > 100 µM | IGROV-1 > 100 µM | KM12 > 30.4 µM | LOX IMVI 24.2 µM | Malme-3M > 41.2 µM | NCI-H226 > 55.3 µM | OVCAR-3 38.7 µM | RPMI-8226 > 100 µM | SF-295 25.8 µM | SK-MEL-2 > 56 µM | SNB-75 11.2 µM | SW-620 > 100 µM | TK-10 26.9 µM | UACC-257 > 100 µM | UO-31 > 35.6 µM

Cc1cccc2c1c(=O)c1c(O)cc(O)cc1n2C
inactive: BT-549 > 100 µM | CAKI-1 > 100 µM | COLO 205 30 µM | HOP-62 > 100 µM | HOP-92 92.9 µM | IGROV-1 > 100 µM | KM12 > 100 µM | LOX IMVI 82 µM | Malme-3M > 100 µM | NCI-H226 > 100 µM | OVCAR-3 > 100 µM | RPMI-8226 > 100 µM | SF-295 89.1 µM | SK-MEL-2 > 100 µM | SNB-75 39.4 µM | SW-620 > 100 µM | TK-10 > 100 µM | UACC-257 > 100 µM

CC(=N\N=C\c1ccccn1)/C(C)=N/N=C(C)/C(C)=N/N=C(C)/C(C)=N/N=C/c1ccccn1
inactive: BT-549 > 100 µM | CAKI-1 > 100 µM | COLO 205 > 100 µM | HOP-62 > 100 µM | HOP-92 > 100 µM | IGROV-1 > 100 µM | KM12 > 100 µM | LOX IMVI > 100 µM | Malme-3M > 100 µM | NCI-H226 > 100 µM | OVCAR-3 > 100 µM | RPMI-8226 > 100 µM | SF-295 > 100 µM | SK-MEL-2 > 100 µM | SNB-75 > 100 µM | SW-620 > 100 µM | TK-10 > 100 µM | UACC-257 > 100 µM | UO-31 > 100 µM

CC1(C)C(=O)/C(=C/c2ccccc2)C(C)(C)C1(C)C
inactive: BT-549 36.1 µM | CAKI-1 49.1 µM | COLO 205 > 100 µM | HOP-62 40.9 µM | HOP-92 > 40 µM | IGROV-1 60.1 µM | KM12 49.9 µM | LOX IMVI 35.4 µM | Malme-3M > 71.3 µM | NCI-H226 > 100 µM | OVCAR-3 > 39.3 µM | RPMI-8226 31.4 µM | SF-295 > 100 µM | SK-MEL-2 > 43.5 µM | SNB-75 46.8 µM | SW-620 60.3 µM | TK-10 46.6 µM | UACC-257 > 100 µM | UO-31 52.6 µM
